The source of these data is patent US20260069571A1, “DDR1 AND DDR2 INHIBITORS FOR THE TREATEMENT OF CANCER AND FIBROTIC DISEASES” (REDX PHARMA PLC, priority 2021, published 2026).

The target in one assay is Recombinant human DDR1 (Homo sapiens (Human), UniProt Q08345). The experiment in a line: LanthaScreen Eu Kinase Binding Assay, DDR1. Particulars: DDR1 2.5 nM (aa440-876, GST tag), Kinase Tracer 178 5 nM; for IC50: read-out: DDR1 pIC50 (converted). In outline:
(§1)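 GST-tagged kinase domains (DDR1 aa440-876 at 2.5 nM; DDR2 aa427-855 at 1.75 nM) were preincubated 30 min at room temperature with compound in HEPES pH 7.3 buffer. Then 1 nM Eu-anti-GST plus Tracer 178 (5 nM DDR1, 10 nM DDR2) were added; after 60 min, TR-FRET gave IC50 by four-parameter fit, ≥2 replicates.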
Background: In TR-FRET formats the signal depends on donor and acceptor labels being close together.

A further assay has as its target Recombinant human DDR2 (Homo sapiens (Human), UniProt Q16832). Description: LanthaScreen Eu Kinase Binding Assay, DDR2. Particulars: DDR2 1.75 nM (aa427-855, GST tag), Kinase Tracer 178 10 nM; for IC50: read-out: DDR2 pIC50 (converted). In outline:
as §1

Chain of Recombinant human DDR1 (Q08345 other isoform, or with tags, fused parts or gaps): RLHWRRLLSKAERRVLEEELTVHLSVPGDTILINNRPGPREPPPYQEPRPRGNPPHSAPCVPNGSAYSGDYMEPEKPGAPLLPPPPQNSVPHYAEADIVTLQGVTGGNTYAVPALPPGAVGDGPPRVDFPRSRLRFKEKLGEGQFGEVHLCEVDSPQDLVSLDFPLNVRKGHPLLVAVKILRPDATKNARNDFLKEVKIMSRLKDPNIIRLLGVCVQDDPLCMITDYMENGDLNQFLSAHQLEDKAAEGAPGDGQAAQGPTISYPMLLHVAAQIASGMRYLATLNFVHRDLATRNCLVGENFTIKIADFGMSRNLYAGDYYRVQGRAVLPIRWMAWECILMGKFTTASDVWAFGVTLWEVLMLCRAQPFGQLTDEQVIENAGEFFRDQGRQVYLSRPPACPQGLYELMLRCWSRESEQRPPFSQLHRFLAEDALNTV
Chain of Recombinant human DDR2 (Q16832 427-855): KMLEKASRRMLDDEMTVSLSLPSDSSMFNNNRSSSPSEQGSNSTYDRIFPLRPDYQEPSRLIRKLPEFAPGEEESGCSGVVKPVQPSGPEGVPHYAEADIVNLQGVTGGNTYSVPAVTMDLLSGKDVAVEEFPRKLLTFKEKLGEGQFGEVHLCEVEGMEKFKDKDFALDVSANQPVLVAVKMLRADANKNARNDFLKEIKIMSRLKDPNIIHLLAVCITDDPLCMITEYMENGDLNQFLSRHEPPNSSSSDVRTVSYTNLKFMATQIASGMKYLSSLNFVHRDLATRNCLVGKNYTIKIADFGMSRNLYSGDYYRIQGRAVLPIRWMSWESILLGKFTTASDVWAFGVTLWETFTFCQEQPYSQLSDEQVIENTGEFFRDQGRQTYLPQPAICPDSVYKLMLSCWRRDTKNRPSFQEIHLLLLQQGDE

For the compound `Cc1n[nH]c2cc(Nc3cccc4c3C(=O)N(CC(=O)N3CCC[C@H]3C(F)(F)F)C4)ccc12` [Example 29, 7-[(3-methyl-1H-indazol-6-yl)amino]-2-[2-oxo-2-[(2S)-(trifluoromethyl)77yrrolidine-1-yl]ethyl]isoindolin-1-one], the IC50 on Recombinant human DDR1 and at Recombinant human DDR2 was < 10 nM throughout.

Turning to `Cc1n[nH]c2cc(Nc3cccc4c3C(=O)N(CC(=O)N3CCC[C@H]3C(F)(F)F)C4)cnc12` [Example 67, 7-[(3-methyl-1H-pyrazolo[4,3-b]pyridin-6-yl)amino]-2-[2-oxo-2-[(2S)-(trifluoromethyl)pyrrolidin-1-yl]ethyl]isoindolin-1-one], the IC50 on Recombinant human DDR1 and at Recombinant human DDR2 was < 10 nM throughout.

Take `Cn1ncc2cc(Nc3cccc4c3C(=O)N(CC(=O)NC3CC3(F)F)C4)cnc21` (stereo not shown) [Example 52, N-(2,2-difluorocyclopropyl)-2-[7-[(1-methylpyrazolo[3,4-b]pyridin-5-yl)amino]-1-oxo-isoindolin-2-yl]acetamide]: the IC50 on Recombinant human DDR1 was 10 to 100 nM; at Recombinant human DDR2, 100 to 1000 nM.

For `Cn1ncc2cc(Nc3cccc4c3C(=O)N(CC(=O)NC(C)(C)C(F)(F)F)C4)ccc21` [Example 49, 2-[7-[(1-methylindazol-5-yl)amino]-1-oxo-isoindolin-2-yl]-N-(2,2,2-trifluoro-1,1-dimethyl-ethyl)acetamide], the “DDR1 pIC50” value on Recombinant human DDR1 is on record as “A (pIC50>8)”. The “DDR2 pIC50” value on Recombinant human DDR2 is recorded as “A (pIC50>8)”.

Consider `Cn1ncc2cc(Nc3cccc4c3C(=O)N(CC(=O)Nc3cccc(C(C)(C)O)c3)C4)ccc21` [Example 10, N-[3-(1-hydroxy-1-methyl-ethyl)phenyl]-2-[7-[(1-methylindazol-5-yl)amino]-1-oxo-isoindolin-2-yl]acetamide], for which the “DDR1 pIC50” value at Recombinant human DDR1 is “A (pIC50>8)”. Further, on Recombinant human DDR2, the IC50 was 10 to 100 nM.

Regarding `Cn1ncc2cc(Nc3cccc4c3C(=O)N(CC(=O)NCC(F)(F)F)C4)cc(Cl)c21` [Example 27, 2-[7-[(7-chloro-1-methyl-indazol-5-yl)amino]-1-oxo-isoindolin-2-yl]-N-(2,2,2-trifluoroethyl)acetamide], the “DDR1 pIC50” value at Recombinant human DDR1 is reported as “A (pIC50>8)”. Also, the “DDR2 pIC50” value on Recombinant human DDR2 is listed as “A (pIC50>8)”.

For the compound `Cc1n[nH]c2cc(Nc3cccc4c3C(=O)N(CC(=O)N3CCC[C@H]3CF)C4)ccc12` [Example 33, 2-[2-[(2S)-(fluoromethyl)pyrrolidin-1-yl]-2-oxo-ethyl]-7-[(3-methyl-1H-indazol-6-yl)amino]isoindolin-1-one], at Recombinant human DDR1, the “DDR1 pIC50” value was “A (pIC50>8)”. On Recombinant human DDR2, the “DDR2 pIC50” value is reported as “A (pIC50>8)”.

As for `Cc1n[nH]c2cc(Nc3cccc4c3C(=O)N(CC(=O)NC3CC3(F)F)C4)ccc12` (stereo not shown) [Example 36, N-(2,2-difluorocyclopropyl)-2-[7-[(3-methyl-1H-indazol-6-yl)amino]-1-oxo-isoindolin-2-yl]acetamide], the “DDR1 pIC50” value at Recombinant human DDR1 is given as “A (pIC50>8)”. Besides, the “DDR2 pIC50” value on Recombinant human DDR2 is recorded as “A (pIC50>8)”.

For `CN(c1cnc2[nH]ncc2c1)c1cccc2c1C(=O)N(CC(=O)N1CCC[C@H]1C(F)(F)F)C2` [Example 88, 7-[methyl(1H-pyrazolo[3,4-b]pyridin-5-yl)amino]-2-[2-oxo-2-[(2S)-(trifluoromethyl)pyrrolidin-1-yl]ethyl]isoindolin-1-one], the IC50 at Recombinant human DDR1 and on Recombinant human DDR2 was 10 to 100 nM throughout.

As for `Cc1n[nH]c2cc(Nc3cccc4c3C(=O)N(CC(=O)N3CCC[C@H]3C(F)F)C4)ccc12` [Example 41, 7-[(3-methyl-1H-indazol-6-yl)amino]-2-[2-oxo-2-[(2S)-(difluoromethyl)pyrrolidin-1-yl]ethyl]isoindolin-1-one], the “DDR1 pIC50” value at Recombinant human DDR1 is listed as “A (pIC50>8)”. The “DDR2 pIC50” value at Recombinant human DDR2 is given as “A (pIC50>8)”.

With `Cn1ncc2cc(Nc3cccc4c3C(=O)N(CC(=O)NCC(F)(F)F)C4)ccc21` [Example 1, 2-[7-[(1-Methylindazol-5-yl)amino]-1-oxo-isoindolin-2-yl]-N-(2,2,2-trifluoroethyl) acetamide], the IC50 on Recombinant human DDR1 was < 10 nM; on Recombinant human DDR2, 10 to 100 nM.

For `Cn1ncc2cc(Nc3cccc4c3C(=O)N(CC(=O)NCC(F)(F)F)C4)cnc21` [Example 9, 2-[7-[(1-methylpyrazolo[3,4-b]pyridin-5-yl)amino]-1-oxo-isoindolin-2-yl]-N-(2,2,2-trifluoroethyl)acetamide], the IC50 is 10 to 100 nM at Recombinant human DDR1 and 100 to 1000 nM at Recombinant human DDR2.

In the case of `Cn1ncc2cc(Nc3cccc4c3C(=O)N(CC(=O)N3CC(F)(F)C3)C4)ccc21` [Example 19, 2-[2-(3,3-difluoroazetidin-1-yl)-2-oxo-ethyl]-7-[(1-methylindazol-5-yl)amino]isoindolin-1-one], the IC50 at Recombinant human DDR1 and on Recombinant human DDR2 was 100 to 1000 nM in each case.

On to `C[C@H](NC(=O)CN1Cc2cccc(N(C)c3cnc4[nH]ncc4c3)c2C1=O)C(F)(F)F` [Example 89, 2-[7-[methyl(1H-pyrazolo[3,4-b]pyridin-5-yl)amino]-1-oxo-isoindolin-2-yl]-N-[(1S)-2,2,2-trifluoro-1-methyl-ethyl]acetamide], for which the IC50 at Recombinant human DDR1 and on Recombinant human DDR2 was 10 to 100 nM each time.

For `O=C1c2c(cccc2Nc2cnc3[nH]ncc3c2)CN1CC(=O)N1CCC[C@H]1C(F)(F)F` [Example 74, 2-[2-oxo-2-[(2S)-(trifluoromethyl)pyrrolidin-1-yl]ethyl]-7-(1H-pyrazolo[3,4-b]pyridin-5-ylamino)isoindolin-1-one], the IC50 on Recombinant human DDR1 and at Recombinant human DDR2 was < 10 nM throughout.

In the case of `C[C@H](NC(=O)CN1Cc2cccc(Nc3ccc4c(cnn4C)c3)c2C1=O)C(F)(F)F` [Example 2, 2-[7-[(1-Methylindazol-5-yl)amino]-1-oxo-isoindolin-2-yl]-N-[(1S)-2,2,2-trifluoro-1-methyl-ethyl]acetamide], the “DDR1 pIC50” value at Recombinant human DDR1 was “A (pIC50>8)”. For the same compound, on Recombinant human DDR2, the “DDR2 pIC50” value is given as “A (pIC50>8)”.

For `O=C1c2c(cccc2Nc2ccc3[nH]nc(F)c3c2)CN1CC(=O)N1CCC[C@H]1C(F)(F)F` [Example 83, 7-[(3-fluoro-1H-indazol-5-yl)amino]-2-[2-oxo-2-[(2S)-(trifluoromethyl)pyrrolidin-1-yl]ethyl]isoindolin-1-one], the IC50 on Recombinant human DDR1 and on Recombinant human DDR2 was 10 to 100 nM in each case.

As for `Cc1n[nH]c2cc(Nc3cccc4c3C(=O)N(CC(=O)N3CCO[C@@H](C(F)(F)F)C3)C4)ccc12` [Example 47, 7-[(3-methyl-1H-indazol-6-yl)amino]-2-[2-oxo-2-[(2R)-(trifluoromethyl)morpholin-4-yl]ethyl]isoindolin-1-one], the “DDR1 pIC50” value on Recombinant human DDR1 is given as “A (pIC50>8)”. Also, the IC50 on Recombinant human DDR2 was 10 to 100 nM.

For `Cn1ncc2cc(Nc3cccc4c3C(=O)N(CC(=O)N3CCC[C@H]3C(F)(F)F)C4)cc(F)c21` [Example 96, 7-[(7-fluoro-1-methyl-indazol-5-yl)amino]-2-[2-oxo-2-[(2S)-(trifluoromethyl)pyrrolidin-1-yl]ethyl]isoindolin-1-one], the “DDR1 pIC50” value at Recombinant human DDR1 is listed as “A (pIC50>8)”. The “DDR2 pIC50” value on Recombinant human DDR2 is “A (pIC50>8)”.

On to `Cn1ncc2nc(Nc3cccc4c3C(=O)N(CC(=O)N3CCC[C@H]3C(F)(F)F)C4)ccc21` [Example 85, 7-[(1-methylpyrazolo[4,3-b]pyridin-5-yl)amino]-2-[2-oxo-2-[(2S)-(trifluoromethyl)pyrrolidin-1-yl]ethyl]isoindolin-1-one], for which the IC50 on Recombinant human DDR1 and on Recombinant human DDR2 was 10 to 100 nM throughout.
